The target in assay [1] is T1, Recombinant human MetAP-2 (Homo sapiens, UniProt P50579).
T1 construct: made in house; host or cells: insect cells
Put plainly: MetAP-2 enzymatic assay. The assay is classed as biochemical. Conditions: 1 nM purified human MetAP-2, inhibitor incubated at 37° C. for 30 minutes, 1 mM Met-Gly-Met-Met, released methionine. The method, then:
(B) MetAP-2 Enzymatic Assay Recombinant human MetAP-2 was expressed and purified from insect cells as previously described (Li, X.; Chang, Y.-H. Biochem. Biophys. Res. Commun. 1996, 227, 152). […] To start the enzymatic reaction, […] was added to a concentration of 1 mM to the reaction mixture. Released methionine was quantified at different time points (0, 2, 3 and 5 min) using the method of Zuo et al (Zuo, S.; Guo, Q.; Ling, C.; Chang, Y-.H. Mol. Gen. Genet. 1995, 246, 247).

Assay [2] has as its system bovine arotic endothelial cells (BAEC). Put plainly: BAEC proliferation assay. The following applies: tritiated thymidine incorporation, 24 hours drug plus 6 hours label, 0.5% DMSO. The assay is classed as cell-based. The procedure: (A) BAEC Proliferation Assay
About 2500 bovine arotic endothelial cells (BAEC) in 195 μl of DMEM (Dulbecco's Modified Eagle's Medium) were plated per well of a 96-well plate and grown at 37° C. and 5% CO2. Cells were allowed to recover for 12 hours. 1 μL of 200 times drug stock solution was added to each treatment well. The final vehicle (DMSO) concentration was 0.5%. Vehicle only was used as a control for maximum proliferation. Three wells were treated for each drug concentration. After 24 hours, 1 μCi of tritiated thymidine (diluted in DMEM to a total volume of 10 μL) was added to each well. After additional 6 hours incubation, each well was washed in 180 μl of PBS buffer. 70 μL of trypsin was added to each well. Plates were incubated for 5 minutes at 37° C. Cells were harvested using a Harvester 96 Mach III M (Tomtec) and transferred to glass fiber filters (Wallac). 6 mL of Betaplate Scint (PerkinElmer) was added to each filter in a sealed sample bag. Scintillation counting was done in using a 1450 MicroBeta counter (Wallac). CPM were normalized to vehicle control, averaged across three replicates, and fit to the following equation using GraphPadPrism v4.0: Y=Bottom+(Top-Bottom)/(1+10^((Log EC50−X)*HillSlope)) wherein X is the logarithm of concentration and Y is the response. Y started at Bottom and went to Top with a sigmoid shape. The bottom value was constrained to zero.

The structures appear in SMILES notation. pIC50: −log10 of the molar value.

T1 sequence (P50579 whole entry): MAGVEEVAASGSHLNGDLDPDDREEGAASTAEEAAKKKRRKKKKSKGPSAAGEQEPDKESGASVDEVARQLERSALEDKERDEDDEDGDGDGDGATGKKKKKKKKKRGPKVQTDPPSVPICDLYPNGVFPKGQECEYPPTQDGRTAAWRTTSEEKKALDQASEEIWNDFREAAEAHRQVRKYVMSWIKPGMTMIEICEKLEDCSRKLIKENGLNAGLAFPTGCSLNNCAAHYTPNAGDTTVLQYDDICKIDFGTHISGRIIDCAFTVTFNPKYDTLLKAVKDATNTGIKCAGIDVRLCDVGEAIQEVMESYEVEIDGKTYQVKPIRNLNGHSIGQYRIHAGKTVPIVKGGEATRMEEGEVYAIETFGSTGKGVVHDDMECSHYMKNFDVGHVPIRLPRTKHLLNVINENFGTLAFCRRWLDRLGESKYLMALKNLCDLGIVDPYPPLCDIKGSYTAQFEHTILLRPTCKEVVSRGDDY

On to `CC(C)=CCC1OC1(C)C1CC(O)CCC12CO2` (stereo not shown) [5-Demethoxyfumagillol, 5-demethoxyfumagillol], for which the negative-log IC50 (pIC50) in assay [1] is 6.01; in assay [2], 9.55.
For the molecule `CC(C)=CC[C@H]1O[C@]1(C)[C@H]1C[C@H](OC(=O)N[C@@H](C(N)=O)C(C)C)CC[C@]12CO2` [Compound 17a], the pIC50 in assay [1] was 7.54; in assay [2] (Bos taurus, BAEC, 30 h), 9.68.
Consider `CC(C)=CC[C@H]1O[C@]1(C)[C@H]1C[C@H](OC(=O)NN2CCCCC2)CC[C@]12CO2` [Compound 17ab], for which the pIC50 in assay [2] (Bos taurus, BAEC, 30 h) is 10.40.
The same measure, in the same setting: to `CC(C)=CC[C@H]1O[C@]1(C)[C@H]1C[C@H](OC(=O)Nc2nccs2)CC[C@]12CO2` [Compound 17ac] belongs 10.42.
Turning to `CC(C)=CC[C@H]1O[C@]1(C)[C@H]1C[C@H](OC(=O)N[C@H](C(N)=O)C(C)C)CC[C@]12CO2` [Compound 17b], the pIC50 was 7.30 in assay [1] and 9.96 in assay [2] (Bos taurus, BAEC, 30 h).
For `CC(C)=CC[C@H]1O[C@]1(C)[C@H]1C[C@H](OC(=O)N[C@H](Cc2ccccc2)C(N)=O)CC[C@]12CO2` [Compound 17c], in that order: 7.80 and 10.41.
For `CC(C)=CC[C@H]1O[C@]1(C)[C@H]1C[C@H](OC(=O)N[C@@H](Cc2ccccc2)C(N)=O)CC[C@]12CO2` [Compound 17d], in that order: 7.25 and 10.17.
For `CC(C)=CC[C@H]1O[C@]1(C)[C@H]1C[C@H](OC(=O)N[C@@H](C(N)=O)c2ccccc2)CC[C@]12CO2` [Compound 17e], in that order: 7.38 and 10.07.
With `CC(C)=CC[C@H]1O[C@]1(C)[C@H]1C[C@H](OC(=O)N[C@H](CC(C)C)C(N)=O)CC[C@]12CO2` [Compound 17f], the pIC50 in assay [1] is 7.41; in assay [2] (Bos taurus, BAEC, 30 h), 10.04.
Take `CC(C)=CC[C@H]1O[C@]1(C)[C@H]1C[C@H](OC(=O)N[C@@H](Cc2ccccc2)C(=O)NCCCN=[N+]=[N-])CC[C@]12CO2` [Compound 17g]: the pIC50 in assay [1] is 7.39; in assay [2] (Bos taurus, BAEC, 30 h) it was 8.85.
For the molecule `CC(C)=CC[C@H]1O[C@]1(C)[C@H]1C[C@H](OC(=O)N[C@@H](Cc2ccccc2)C(=O)N2CCOCC2)CC[C@]12CO2` [Compound 17h], the pIC50 in assay [1] was 7.36; in assay [2] (Bos taurus, BAEC, 30 h) it was 10.10.
For `C=CCNC(=O)[C@H](Cc1ccccc1)NC(=O)O[C@@H]1CC[C@]2(CO2)[C@@H]([C@@]2(C)O[C@@H]2CC=C(C)C)C1` [Compound 17i], in that order: 7.33 and 10.23.
As to `CC(C)=CC[C@H]1O[C@]1(C)[C@H]1C[C@H](OC(=O)N[C@@H](Cc2ccccc2)C(=O)NC2CC2)CC[C@]12CO2` [Compound 17j], the pIC50 was 7.39 in assay [1] and 10.57 in assay [2] (Bos taurus, BAEC, 30 h).
The matching figures for `CC(C)=CC[C@H]1O[C@]1(C)[C@H]1C[C@H](OC(=O)N[C@@H](Cc2ccccc2)C(=O)N2CCN(Cc3ccc(F)cc3)CC2)CC[C@]12CO2` [Compound 17k]: 7.92 and 9.68.
`C#CCNC(=O)[C@@H](Cc1ccccc1)NC(=O)O[C@@H]1CC[C@]2(CO2)[C@@H]([C@@]2(C)O[C@@H]2CC=C(C)C)C1` [Compound 17l]: the pIC50 in assay [1] is 7.68; in assay [2] (Bos taurus, BAEC, 30 h), 10.29.
For `COc1ccc(CNC(=O)[C@H](Cc2ccccc2)NC(=O)O[C@@H]2CC[C@]3(CO3)[C@@H]([C@@]3(C)O[C@@H]3CC=C(C)C)C2)cc1` [Compound 17m], the pIC50 in assay [1] was 7.96; in assay [2] (Bos taurus, BAEC, 30 h), 9.72.
The matching figures for `CC(C)=CC[C@H]1O[C@]1(C)[C@H]1C[C@H](OC(=O)N[C@H](C(=O)NC2CC2)C(C)C)CC[C@]12CO2` [Compound 17n]: 7.72 and 10.51.
`CC(C)=CC[C@H]1O[C@]1(C)[C@H]1C[C@H](OC(=O)N[C@H](C(=O)NC2CCCC2)C(C)C)CC[C@]12CO2` [Compound 17o]: the pIC50 was 7.55 in assay [1] and 10.46 in assay [2] (Bos taurus, BAEC, 30 h).
The matching figures for `COC(=O)[C@@H](NC(=O)O[C@@H]1CC[C@]2(CO2)[C@@H]([C@@]2(C)O[C@@H]2CC=C(C)C)C1)C(C)C` [Compound 17p]: 7.57 and 10.21.
The matching figures for `CC(C)=CC[C@H]1O[C@]1(C)[C@H]1C[C@H](OC(=O)N2CCN(c3ccc([N+](=O)[O-])cc3)CC2)CC[C@]12CO2` [Compound 17q]: 7.59 and 10.70.
As for `CC(C)=CC[C@H]1O[C@]1(C)[C@H]1C[C@H](OC(=O)N2CCC2)CC[C@]12CO2` [Compound 17r], the pIC50 in assay [2] (Bos taurus, BAEC, 30 h) is 10.42.
The same measure, in the same setting: then `CC(C)=CC[C@H]1O[C@]1(C)[C@H]1C[C@H](OC(=O)N2CCCC2)CC[C@]12CO2` [Compound 17s], with 10.40.
Consider `CC(C)=CC[C@H]1O[C@]1(C)[C@H]1C[C@H](OC(=O)N2CCCCC2)CC[C@]12CO2` [Compound 17t], for which the pIC50 in assay [2] (Bos taurus, BAEC, 30 h) is 10.09.
Turning to `CC(C)=CC[C@H]1O[C@]1(C)[C@H]1C[C@H](OC(=O)N2CCN(C)CC2)CC[C@]12CO2` [Compound 17u], in assay [2] (Bos taurus, BAEC, 30 h), the pIC50 was 10.05.
As for `CC(C)=CC[C@H]1O[C@]1(C)[C@H]1C[C@H](OC(=O)N2CCN(c3ccc(F)cc3)CC2)CC[C@]12CO2` [Compound 17v], in assay [2] (Bos taurus, BAEC, 30 h), the pIC50 was 10.17.
`CC(C)=CC[C@H]1O[C@]1(C)[C@H]1C[C@H](OC(=O)N2CCN(CC3CCCCC3)CC2)CC[C@]12CO2` [Compound 17w]: the pIC50 in assay [2] (Bos taurus, BAEC, 30 h) is 10.13.
In the case of `C=CCN1CCN(C(=O)O[C@@H]2CC[C@]3(CO3)[C@@H]([C@@]3(C)O[C@@H]3CC=C(C)C)C2)CC1` [Compound 17x], the pIC50 in assay [2] (Bos taurus, BAEC, 30 h) was 10.33.
`CC(C)=CC[C@H]1O[C@]1(C)[C@H]1C[C@H](OC(=O)N2CCN(C3CCCC3)CC2)CC[C@]12CO2` [Compound 17y]: the pIC50 in assay [2] (Bos taurus, BAEC, 30 h) was 10.51.
Still for that read-out and setting: to `CC(C)=CC[C@H]1O[C@]1(C)[C@H]1C[C@H](OC(=O)N2CCOCC2)CC[C@]12CO2` [Compound 17z] belongs 10.32.
With `CO[C@@H]1[C@H](O)CC[C@]2(CO2)[C@H]1[C@@]1(C)O[C@@H]1CC=C(C)C` [Fumagillol], the pIC50 is 6.04 in assay [1] and 8.69 in assay [2].

The values are drawn from patent publication US8299067B2, “5-demethoxyfumagillol and derivatives thereof” (Versitech Limited, priority 2008, dated 2012).
